We go through 8 molecules from US11970483B2, “Heterocyclic compound” (Takeda Pharmaceutical Company Limited, priority 2018, dated 2024).

The structures appear in SMILES notation.

A word on the EC50: it is the midpoint of the concentration-response curve.

For the assay, the target named is T1, human M1 receptor (hCHRM1) (Homo sapiens, UniProt P11229).
T1 construct: expressed in transfected cells
T1 sequence (P11229 1-460): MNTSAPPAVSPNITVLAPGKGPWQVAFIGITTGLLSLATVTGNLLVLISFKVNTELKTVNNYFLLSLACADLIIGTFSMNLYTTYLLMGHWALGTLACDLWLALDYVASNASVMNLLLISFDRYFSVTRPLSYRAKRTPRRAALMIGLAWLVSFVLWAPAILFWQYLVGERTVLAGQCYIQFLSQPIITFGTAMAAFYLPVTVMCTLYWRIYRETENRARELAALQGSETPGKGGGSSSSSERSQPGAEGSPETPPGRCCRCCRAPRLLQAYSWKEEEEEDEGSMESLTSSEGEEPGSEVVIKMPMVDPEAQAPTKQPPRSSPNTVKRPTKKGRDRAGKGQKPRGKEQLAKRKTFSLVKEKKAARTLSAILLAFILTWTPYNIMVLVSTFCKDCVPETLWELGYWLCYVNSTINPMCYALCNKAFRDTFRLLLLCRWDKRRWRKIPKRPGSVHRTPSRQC
Briefly: Measurement of M1 receptor positive allosteric modulator (M1PAM) activity (IP1 HTRF, in presence of EC20 acetylcholine). The class given is cell-based. To be noted: CHO-K1 cells stably expressing hCHRM1; acetylcholine at EC20 concentration; IP1 readout. As for the experimental part: Measurement of M1 Receptor Positive Allosteric Modulator (M1PAM) Activity
The activity of a test compound in the presence of acetylcholine at an EC20 concentration affording about 20% action of the maximum activity was measured as PAM activity.
The method therefor is as follows. To a 384-well white plate (Greiner) was added 4 μL of the test compound diluted with IP1 Stimulation buffer (CisBio) containing 0.1% fatty acid-free BSA containing 80 nM acetylcholine. Freeze stock of CHO-K1 cells stably expressing human M1 receptor (hCHRM1) was prepared with IP1 Stimulation buffer (CisBio) containing 0.1% fatty acid-free BSA, 4 μL thereof was added (10,000 cells/well) and the mixture was cultured in a 5% CO2 incubator at 37° C. for 1 hr. 4 μL of a solution (CisBio) containing IP1-d2 and Anti-IP1-cryptate Tb conjugate was added, the mixture was incubated at room temperature for 1 hr, and the time-resolved fluorescence signal was measured on an Envision plate reader (PerkinElmer). The activity (%) of the test compound was calculated by defining the value when acetylcholine was added at the final concentration of 20 μM as 100% and the value when DMSO was added instead of the test compound under acetylcholine-free conditions as 0%, and the EC50 value was calculated as a value of 50% of the concentration dependence curve of the test compound.
(In TR-FRET formats the signal depends on donor and acceptor labels being close together.)
In the case of `Cc1c(Cc2ccc(-c3cnn(C)c3)nc2)cc(C(=O)N[C@H]2CCOC[C@@H]2O)c2c1CCO2` [Example 2, 1,5-anhydro-2,3-dideoxy-3-[{4-methyl-5-{[6-(1-methyl-1H-pyrazol-4-yl)pyridin-3-yl]methyl}-2,3-dihydro-1-benzofuran-7-carbonyl)amino]-L-threo-pentitol], the EC50 stood at 33 nM.

As for `Cc1nn(C)cc1-c1ccc(Cc2cc(C(=O)N[C@H]3CCOC[C@@H]3O)c3c(c2C)CCO3)cn1` [Example 3, 1,5-anhydro-2,3-dideoxy-3-[(5-{[6-(1,3-dimethyl-1H-pyrazol-4-yl)pyridin-3-yl]methyl}-4-methyl-2,3-dihydro-1-benzofuran-7-carbonyl)amino]-L-threo-pentitol], the EC50 stood at 46 nM.

Take `Cc1c(Cc2ccc(C(N)=O)cc2)cc(C(=O)N[C@H]2CCOC[C@@H]2O)c2c1CCO2` [Example 5, 1,5-anhydro-3-({5-[(4-carbamoylphenyl)methyl]-4-methyl-2,3-dihydro-1-benzofuran-7-carbonyl}amino)-2,3-dideoxy-L-threo-pentitol]: the EC50 amounted to 12 nM.

Consider `CNC(=O)c1ccc(Cc2cc(C(=O)N[C@H]3CCOC[C@@H]3O)c3c(c2C)CCO3)cc1F` [Example 21, 1,5-anhydro-2,3-dideoxy-3-[(5-{[3-fluoro-4-(methylcarbamoyl)phenyl]methyl)-4-methyl-2,3-dihydro-1-benzofuran-7-carbonyl)amino]-L-threo-pentitol], for which the EC50 came out at 24 nM.

In the case of `Cc1c(Cc2ccc(C(=O)NC[C@@H]3CCCO3)c(F)c2)cc(C(=O)N[C@H]2CCOC[C@@H]2O)c2c1CCO2` [Example 30, 1,5-anhydro-2,3-dideoxy-3-[(5-{[3-fluoro-4-({[(2S)-oxolan-2-yl]methyl}carbamoyl)phenyl]methyl}-4-methyl-2,3-dihydro-1-benzofuran-7-carbonyl)amino]-L-threo-pentitol], the EC50 worked out at 56 nM.

As for `Cc1c(Cc2ccc(C(=O)NC3CC3)c(F)c2)cc(C(=O)N[C@H]2CCOC[C@@H]2O)c2c1CCO2` [Example 31, 1,5-anhydro-3-[(5-{[4-(cyclopropylcarbamoyl)-3-fluorophenyl]methyl}-4-methyl-2,3-dihydro-1-benzofuran-7-carbonyl)amino]-2,3-dideoxy-L-threo-pentitol], the EC50 was 37 nM.

For `Cc1c(Cc2ccc(C(=O)NCCF)c(F)c2)cc(C(=O)N[C@H]2CCOC[C@@H]2O)c2c1CCO2` [Example 35, 1,5-anhydro-2,3-dideoxy-3-{[5-({3-fluoro-4-[(2-fluoroethyl)carbamoyl]-phenyl}methyl)-4-methyl-2,3-dihydro-1-benzofuran-7-carbonyl]amino}-L-threo-pentitol], the EC50 was found to be 16 nM.

`CNC(=O)c1ccc(Cc2cc(C(=O)N[C@H]3CCOC[C@@H]3O)c3c(c2C)CCO3)cn1` [Example 36, 1,5-anhydro-2,3-dideoxy-3-[(4-methyl-5-{[6-(methylcarbamoyl)pyridin-3-yl]methyl}-2,3-dihydro-1-benzofuran-7-carbonyl)amino]-L-threo-pentitol]: the EC50 amounted to 130 nM.
